Results: patent US10551384B2, “MTOR kinase mutations and methods of use thereof” (RUTGERS, THE STATE UNIVERSITY OF NEW JERSEY, priority 2016, dated 2020)
Entries after “also recorded” stand apart in the source; their conditions may differ. Where two headings read alike, the source gives them in different places.

What was measured:
[1] = biological target: T1, tor2-dg cells expressing TOR2-mTOR (UniProt P32600+P42345, A1929L/A1944S/A1986S/A2056E/A2073S/C1999R/C2085L/C2133A/D1912T/D1918E/D1933G/D1947H/D2096N/DUP2140-2140/E1921Q/E2000I/E2014H/E2032D/E2033D/E2049A/E2059K/E2080D/G1897S/G1954S/G2046K/G2092K/H1915G/H1958L/H1988Q/H2028Y/H2055Y/H2106N/I1939L/I1957L/I1964L/I1973V/I2021V/K1928N/K1993S/K1996E/K2045E/K2066R/K2087N/K2095S/L1923M/L1952I/L1956S/L1995I/L2037Q/L2103I/M2010E/M2011L/M2026Q/M2058L/M2079N/M2089K/M2132S/N1898S/N1899S/N1920T/N1989K/N1992L/N1997K/N2003P/N2071Q/N2093D/P1951Q/Q1937E/Q1959S/Q2007D/Q2063E/Q2072N/Q2082Y/R1890H/R1896E/R1950N/R1966K/R2042H/R2086M/R2110K/R2134H/S1980I/S2112G/S2120T/T1903A/T1948Q/T1962S/T1977M/T1983E/T1984S/T1985L/T2004V/T2068I/T2098N/T2119Q/V1906L/V1919A/V1924H/V1927F/V2019M/V2044T/V2050A/W1916I/Y1913F/Y1967A/Y2038F/Y2074F/Y2125H); assay: Disc halo assay of tor2-dg cells expressing TOR2-mTOR, with or without antifungal permeability enhancers; assay type: cell-based, S. cerevisiae; conditions: filter discs supplemented with amphotericin B (10 μM), miconazole (50 μM) or caspofungin (50 μM); 37° C., 3 day
T1 construct: fused in frame with mTOR kinase domain (2140-2549 aa); yeast TOR2 N-terminus (1-2080 aa); expressed in transfected cells; host or cells: S. cerevisiae W303 tor2-dg, centromeric plasmid derived from pML40-TOR2
Protocol: FIGS. 2A-C. Enhancement of yeast cell permeability to structurally diverse mTOR kinase inhibitors by amphotericin B. (FIG. 2A) tor2-dg cells expressing TOR2-mTOR were spread on synthetic complete (SC)-leucine plate and tested for drug sensitivity by disc halo assay using filter discs containing different mTOR kinase inhibitors supplemented with the drug carrier DMSO or amphotericin B (10 μM). (FIG. 2B) Similar to FIG. 2A except the filter discs were supplemented with miconazole (50 μM). (FIG. 2C) Similar to FIG. 2A except the filter discs were supplemented with caspofungin (50 μM).
(§1) To enhance yeast cell permeability, log phase W303 tort-dg cells were spread evenly on SD-Leu agarose plates. After drying, small sterile filter discs were placed on the surface and 5 μl of indicated mTOR inhibitors or DMSO were applied to each disc with or without adding 5 μl of amphotericin B (10 μM), miconazole (50 μM) or caspofungin (50 μM). Plates were incubated at 37° C. for 3 day. Drug resistance profiles of TOR2-mTOR mutant cells were determined by the spotting assay. For this assay, 10-fold serial dilutions of cells were spotted on SD-leu plates in the presence of indicated mTOR inhibitors with or without amphotericin B (200 nM) and incubated at 37° C. for 3 day.

[2] = test system: mTORC1 and mTORC2 signaling in SW480 mTOR(L2185A) cells; assay: mTORC1/mTORC2 signaling immunoblot in SW480 cells carrying L2185A mutant mTOR; assay type: cell-based, human; conditions: various concentrations, 1 hr, immunoblot of P-S6K, P-4E-BP1, P-AKT
Protocol: (§2) (FIG. 5A) SW480 cells carrying homozygous WT mTOR or L2185A mutant alleles were treated with various concentrations of AZD8055, INK-128, OSI-027 and PP242 for 2 day. Growth of SW480 cells was measured by SRB assay. Data represent means±SD in three independent experiments. (FIG. 5B) SW480 cells carrying homozygous WT and L2185A mutant mTOR allele were treated with a single dose of AZD8055 (100 nM), INK-128 (100 nM), OSI-027 (6,000 nM), and PP242 (2,000 nM) for different times. Cell growth was measured by SRB assay. The drug carrier DMSO was used as a control. Data represent means±SD in three independent experiments. (FIG. 5C) SW480 cells carrying homozygous WT and L2185A mutant mTOR were treated with various concentrations of INK-128, OSI-027, AZD8055 and PP242 for 1 hr. The effect on the level of P-S6K, S6K, P-4E-BP1, 4EB-P1, P-AKT and AKT was analyzed by immunoblot. […] The growth of SW480 cells was measured by SRB assay. Data represent means±SD in three independent experiments.
(§3) Antibodies against tubulin, S6K, phospho-S6K (Thr389), 4E-BP1, phospho-4E-BP1 (Thr37/46), Akt, phospho-Akt (Thr308), and phospho-Akt (Ser473) were purchased from Cell Signaling Technology. […] For drug sensitivity test, cancer cells were seeded in 96-well plates at a density of 2,000 cells per well. 24 hours later, different concentrations of mTOR inhibitors were added in quadruplicate. Cell growth was measured by the sulforhodamine B (SRB) assay as previously described (Vichai, V., and Kirtikara, K. (2006). Nature protocols 1, 1112-1116).

[3] = test system: SW480 colorectal cancer cells carrying L2185A mutant mTOR alleles; assay: SRB growth assay of SW480 cells carrying L2185A mutant mTOR; assay type: cell-based, human; conditions: various concentrations, 2 day
Protocol: as §2
Cancer cell lines were maintained in DMEM or RPMI 1640, supplemented with 10% fetal bovine serum (Invitrogen) and 1% penicillin/streptomycin (Invitrogen). CRISPR/cas9 technology was used to engineer mutant mTOR allele in SW480 colorectal and H460 lung cancer cells. Briefly, The target sequence for mTOR, […] (SEQ ID NO: 3 was designed through the online tool at crispr.mit.edu, and cloned into pSPCas9(BB)-2A-GFP vector (PX458 in Addgene). Genomic mTOR mutation was engineered using a protocol as described (Ran, et al. (2013). Nature protocols 8, 2281-2308) and was confirmed by targeted sequencing.
as §3

TOR2-mTOR L2185C mutant = assay: Yeast spotting assay for drug resistance, TOR2-mTOR L2185C; assay type: cell-based, S. cerevisiae
Excerpt: (§4) FIGS. 4A-C. […] (FIG. 4A) Scheme of a yeast-based screen for drug-resistant mutations in mTOR kinase domain. mTOR kinase domain is amplified by error-prone PCR to generate randomized mutations, which is then recombined in frame into the TOR2-mTOR plasmid by gap-repair in tort-dg cells, and is selected on SC-leucine minus plates. Replica plating is then made onto SC-leucine plates containing DMSO or mTOR kinase inhibitor for selection of drug resistant clones. (FIG. 4B) tor2-dg cells expressing WT or mutant TOR2-mTOR were serially diluted by 10-fold and assayed for sensitivity to different mTOR kinase inhibitors in the presence of amphotericin B. Vector and TOR2 were used as controls. Drug resistant assay was performed at 37° C. in the presence of amphotericin B (except OSI-027). (FIG. 4C) Systematic mutational analysis of L2185 on drug resistance. tort-dg cells expressing WT or mutant TOR2-mTOR carrying all possible mutations at L2185 were serially diluted by 10-fold and tested for sensitivity to different mTOR kinase inhibitors at 37° C.
as §1

TOR2-mTOR L2185G mutant = assay: Yeast spotting assay for drug resistance, TOR2-mTOR L2185G; assay type: cell-based, S. cerevisiae; conditions: 37° C., with amphotericin B
Excerpt: as §4, §1

TOR2-mTOR L2185A mutant = assay: Yeast spotting assay for drug resistance, TOR2-mTOR L2185A; assay type: cell-based, S. cerevisiae
Excerpt: as §4, §1

TOR2-mTOR L2185D mutant = assay: Yeast spotting assay for drug resistance, TOR2-mTOR L2185D; assay type: cell-based, S. cerevisiae; conditions: 37° C., with amphotericin B
Excerpt: as §4, §1

TOR2-mTOR L2185N mutant = assay: Yeast spotting assay for drug resistance, TOR2-mTOR L2185N; assay type: cell-based, S. cerevisiae; conditions: 37° C., with amphotericin B
Excerpt: as §4, §1

[4] = 37° C., amphotericin B present (except OSI-027)

T1 sequence (P32600+P42345 fused with the stated changes): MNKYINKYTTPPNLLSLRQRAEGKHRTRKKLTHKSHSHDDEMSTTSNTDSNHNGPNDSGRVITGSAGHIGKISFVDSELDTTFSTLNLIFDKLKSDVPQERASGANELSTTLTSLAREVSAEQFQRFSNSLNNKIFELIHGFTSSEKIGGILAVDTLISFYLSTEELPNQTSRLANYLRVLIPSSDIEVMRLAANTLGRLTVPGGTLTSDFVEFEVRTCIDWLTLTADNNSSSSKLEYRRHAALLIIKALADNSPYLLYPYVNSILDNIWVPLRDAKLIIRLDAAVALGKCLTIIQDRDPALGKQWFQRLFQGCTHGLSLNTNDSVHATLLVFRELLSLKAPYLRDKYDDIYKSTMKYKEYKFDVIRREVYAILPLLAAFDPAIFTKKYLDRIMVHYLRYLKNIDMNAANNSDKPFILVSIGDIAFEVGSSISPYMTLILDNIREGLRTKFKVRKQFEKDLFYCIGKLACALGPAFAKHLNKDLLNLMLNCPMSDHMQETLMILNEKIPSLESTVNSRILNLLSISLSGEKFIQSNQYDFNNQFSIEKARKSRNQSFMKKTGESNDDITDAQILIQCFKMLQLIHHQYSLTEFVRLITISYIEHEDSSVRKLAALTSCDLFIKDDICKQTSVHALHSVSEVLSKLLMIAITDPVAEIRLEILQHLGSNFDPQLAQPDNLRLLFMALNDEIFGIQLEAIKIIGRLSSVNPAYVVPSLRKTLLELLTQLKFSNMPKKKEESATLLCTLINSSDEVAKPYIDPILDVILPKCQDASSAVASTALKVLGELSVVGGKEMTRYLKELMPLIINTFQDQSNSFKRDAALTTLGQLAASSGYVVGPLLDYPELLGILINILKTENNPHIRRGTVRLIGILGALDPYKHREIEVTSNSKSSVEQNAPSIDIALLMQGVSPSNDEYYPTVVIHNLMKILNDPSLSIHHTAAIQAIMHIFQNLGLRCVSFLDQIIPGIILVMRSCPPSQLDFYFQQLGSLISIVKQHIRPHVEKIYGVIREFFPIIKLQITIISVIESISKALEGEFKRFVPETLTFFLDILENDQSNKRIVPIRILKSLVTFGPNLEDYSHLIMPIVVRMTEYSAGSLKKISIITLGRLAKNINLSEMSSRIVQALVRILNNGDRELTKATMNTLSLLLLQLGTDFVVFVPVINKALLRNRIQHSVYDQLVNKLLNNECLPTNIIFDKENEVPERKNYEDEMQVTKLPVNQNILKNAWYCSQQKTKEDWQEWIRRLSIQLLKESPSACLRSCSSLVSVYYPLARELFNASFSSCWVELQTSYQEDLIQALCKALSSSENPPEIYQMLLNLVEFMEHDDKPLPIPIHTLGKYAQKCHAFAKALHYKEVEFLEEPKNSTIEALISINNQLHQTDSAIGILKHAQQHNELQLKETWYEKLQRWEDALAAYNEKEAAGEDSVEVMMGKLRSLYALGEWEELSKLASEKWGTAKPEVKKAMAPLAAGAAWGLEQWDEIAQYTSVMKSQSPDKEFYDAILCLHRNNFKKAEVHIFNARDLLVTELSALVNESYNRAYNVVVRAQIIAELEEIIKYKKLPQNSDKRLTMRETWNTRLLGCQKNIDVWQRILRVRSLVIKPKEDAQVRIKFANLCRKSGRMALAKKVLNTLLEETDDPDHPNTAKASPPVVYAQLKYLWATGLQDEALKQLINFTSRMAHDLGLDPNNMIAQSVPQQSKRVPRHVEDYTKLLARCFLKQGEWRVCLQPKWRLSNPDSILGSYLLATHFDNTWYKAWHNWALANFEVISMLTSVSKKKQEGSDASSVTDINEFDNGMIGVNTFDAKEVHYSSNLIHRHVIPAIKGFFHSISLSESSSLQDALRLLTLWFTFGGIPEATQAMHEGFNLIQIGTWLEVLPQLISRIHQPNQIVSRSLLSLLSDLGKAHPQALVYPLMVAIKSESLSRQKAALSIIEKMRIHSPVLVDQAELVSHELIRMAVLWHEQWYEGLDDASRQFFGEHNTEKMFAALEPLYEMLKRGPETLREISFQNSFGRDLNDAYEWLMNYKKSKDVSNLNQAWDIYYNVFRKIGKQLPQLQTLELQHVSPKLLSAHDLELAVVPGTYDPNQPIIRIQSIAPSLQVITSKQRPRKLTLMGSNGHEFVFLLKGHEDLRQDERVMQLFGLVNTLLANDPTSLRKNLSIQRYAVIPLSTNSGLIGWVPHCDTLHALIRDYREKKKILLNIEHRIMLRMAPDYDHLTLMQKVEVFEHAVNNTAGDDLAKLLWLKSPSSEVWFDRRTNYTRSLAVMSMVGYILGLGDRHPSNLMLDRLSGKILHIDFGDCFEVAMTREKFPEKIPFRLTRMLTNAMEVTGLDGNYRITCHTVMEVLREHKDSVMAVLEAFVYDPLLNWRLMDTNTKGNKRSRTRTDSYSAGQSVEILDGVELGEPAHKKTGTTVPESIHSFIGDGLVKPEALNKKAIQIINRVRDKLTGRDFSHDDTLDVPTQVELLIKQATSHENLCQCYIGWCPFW
T1 sequence (P41318 whole entry partner): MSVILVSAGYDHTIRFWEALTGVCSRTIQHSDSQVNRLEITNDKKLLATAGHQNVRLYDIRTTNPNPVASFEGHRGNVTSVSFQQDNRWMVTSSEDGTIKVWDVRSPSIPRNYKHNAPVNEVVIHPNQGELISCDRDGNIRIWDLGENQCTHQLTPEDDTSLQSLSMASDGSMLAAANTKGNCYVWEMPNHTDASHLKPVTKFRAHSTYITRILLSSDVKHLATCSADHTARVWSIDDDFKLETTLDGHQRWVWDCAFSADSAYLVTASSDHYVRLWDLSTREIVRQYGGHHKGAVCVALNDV

SMILES | effect of antifungal drug on yeast sensitivity to mTOR kinase inhibitors [1] | drug resistance/sensitivity of cell growth, SW480 L2185A vs WT [3] | drug resistance of TOR2-mTOR L2185G mutant yeast (TOR2-mTOR L2185G mutant) | drug resistance of TOR2-mTOR L2185D mutant yeast (TOR2-mTOR L2185D mutant) | drug resistance of TOR2-mTOR L2185N mutant yeast (TOR2-mTOR L2185N mutant) | other results
C[C@@H]1[C@H](O)[C@@H](C)/C=C/C=C/C=C/C=C/C=C/C=C/C=C/[C@H](O[C@@H]2O[C@H](C)[C@@H](O)[C@H](N)[C@@H]2O)C[C@@H]2O[C@](O)(C[C@@H](O)C[C@@H](O)[C@H](O)CC[C@@H](O)C[C@@H](O)CC(=O)O[C@H]1C)C[C@H](O)[C@H]2C(=O)O [Amphotericin B] | increases yeast sensitivity to most of mTOR kinase inhibitors |  |  |  |  | 
Clc1ccc(COC(Cn2ccnc2)c2ccc(Cl)cc2Cl)c(Cl)c1 (centres unmarked) [miconazole] | fail to do so |  |  |  |  | 
CC(C)n1nc(-c2cc3cc(O)ccc3[nH]2)c2c(N)ncnc21 [PP242] |  | confers resistance |  |  |  | drug resistance of mTORC1 and mTORC2 signaling, SW480 L2185A vs WT [2]: drug-resistant signaling by both mTORC1 and mTORC2
COc1ccc(-c2cc3c(C)nc(N)nc3n([C@H]3CC[C@H](OCCO)CC3)c2=O)cn1 [PF-04691502] |  | still sensitive | moderately resistant | moderately resistant | moderately resistant | drug resistance/sensitivity of TOR2-mTOR L2185C mutant yeast (TOR2-mTOR L2185C mutant; [4]): confer resistance; also recorded: conferring resistance; drug resistance/sensitivity of TOR2-mTOR L2185A mutant yeast (TOR2-mTOR L2185A mutant; [4]): confers resistance; also recorded: conferring resistance
COc1ccc(-c2ccc3c(N4CCOC[C@@H]4C)nc(N4CCOC[C@@H]4C)nc3n2)cc1CO [AZD8055] |  | confers resistance | moderately resistant | moderately resistant | moderately resistant | drug resistance/sensitivity of TOR2-mTOR L2185C mutant yeast (TOR2-mTOR L2185C mutant; [4]): confer resistance; also recorded: conferring resistance; drug resistance of mTORC1 and mTORC2 signaling, SW480 L2185A vs WT [2]: drug-resistant signaling by both mTORC1 and mTORC2; drug resistance/sensitivity of TOR2-mTOR L2185A mutant yeast (TOR2-mTOR L2185A mutant; [4]): confer resistance; also recorded: conferring resistance
CC[C@H](C)C[C@H](C)CCCCCCCCC(=O)N[C@H]1C[C@@H](O)[C@@H](NCCN)NC(=O)[C@@H]2[C@@H](O)CCN2C(=O)[C@H]([C@H](O)CCN)NC(=O)[C@H]([C@H](O)[C@@H](O)c2ccc(O)cc2)NC(=O)[C@@H]2C[C@@H](O)CN2C(=O)[C@H]([C@@H](C)O)NC1=O [caspofungin] | fail to do so |  |  |  |  | 
CN(C)C1CCN(C(=O)c2ccc(NC(=O)Nc3ccc(-c4nc(N5CCOCC5)nc(N5CCOCC5)n4)cc3)cc2)CC1 [PKI-587] |  |  | moderately resistant | moderately resistant | moderately resistant | drug resistance/sensitivity of TOR2-mTOR L2185C mutant yeast (TOR2-mTOR L2185C mutant): conferring resistance; drug resistance/sensitivity of TOR2-mTOR L2185A mutant yeast (TOR2-mTOR L2185A mutant): conferring resistance
